{
  "source": "patent US11542508B2",
  "about": "“Isolated polynucleotides and polypeptides and methods of using same for expressing an expression product of interest” (priority 2016, dated 2023)",
  "key": {"phi3T": {"test_system": "phi3T", "test": "Growth dynamics of phage-infected cultures (phi3T infection of B. subtilis 168)", "format": "cell-based", "description": "Specifically, overnight cultures of B. subtilis strain 168 were diluted 1:50 in LB media supplemented with 0.1 mM MnCl2 and 5 mM MgCl2, and incubated at 37° C. with shaking until reaching optical density (O.D) 600 nm=0.5. Phages (phi29, phi105, rho14 or phi3T) were added to the bacterial culture at MOI=1 and incubated for 3 hours. The media were centrifuged at 4000 rpm for 10 minutes at 4° C. and the supernatant was filtered with 0.2 μm filer (GE Healthcare Life Sciences, Whatman, CAT #10462200). Phages and large molecules were further filtered out from the media by using Amicon Ultra centrifugal filters at a cutoff of 3,000 NMWL (3 kDa) (Milipore, CAT #UFC900324). A plaque assay was performed in order to verify that no phages were left in the medium.\n7.5 mg (per reaction) of Proteinase K-Agarose from Tritirachium album (Sigma, CAT #P9290) were washed twice with 750 μl of sterile water and then resuspended with 750 μl of LB supplemented with 0.1 mM MnCl2 and 5 mM MgCl2. Following, the tubes were centrifuged again and the supernatant was discarded. 1.5 ml of phi3T-derived conditioned medium or control medium was added to a tube containing the washed proteinase K. The media were incubated for 2 hours at 37° C. with the proteinase K. The media were centrifuged and the supernatants were collected for the infection assay.\nOvernight cultures of bacteria were diluted 1:100 in LB media and incubated at 37° C. with shaking until reaching O.D 600 nm=0.1. The bacterial culture was centrifuged at 4000 rpm for 10 minutes at room temperature. The supernatant was discarded and the pellet was resuspended in LB medium supplemented with 0.1 mM MnCl2 and 5 mM MgCl2 at 10% of the initial volume. The concentrated bacterial culture was added to conditioned medium or medium supplemented with synthesized arbitrium peptide in a ratio of 1:9 (bacteria to medium) and incubated for 1 hour at room temperature. Following, the culture was infected with phages at MOI=0.1. Optical density measurements at a wavelength of 600 nm were taken using a TECAN Infinite 200 plate reader in a 96-wells plate."}, "AimR": {"molecular_target": "AimR (Bacillus phage phi3T, UniProt P0DOE3)", "sequence (P0DOE3 whole entry)": "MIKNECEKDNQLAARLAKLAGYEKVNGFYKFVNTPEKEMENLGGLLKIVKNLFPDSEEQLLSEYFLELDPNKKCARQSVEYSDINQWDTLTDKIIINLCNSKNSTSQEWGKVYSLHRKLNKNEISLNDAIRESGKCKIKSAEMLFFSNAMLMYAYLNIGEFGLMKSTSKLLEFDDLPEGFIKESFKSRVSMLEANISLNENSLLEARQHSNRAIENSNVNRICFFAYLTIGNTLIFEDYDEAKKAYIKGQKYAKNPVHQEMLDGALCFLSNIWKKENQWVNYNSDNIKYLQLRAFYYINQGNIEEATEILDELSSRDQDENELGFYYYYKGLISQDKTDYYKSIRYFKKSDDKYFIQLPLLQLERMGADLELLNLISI", "test": "ChIP-seq of His-tagged AimR on phage DNA", "format": "cell-based", "conditions": "15 minutes after phage infection, with or without 1 μM peptide", "description": "For the ChIP-seq experiments, B. subtilis cell cultures were grown in 100 ml to O.D of 0.1 in LB at 37° C. Following, 50 ml of culture was centrifuged at 4000 rpm for 10 minutes at room temperature. The pellets were then suspended with 25 ml LB either containing or lacking the peptide (SAIRGA, SEQ ID NO: 269) at a final concentration of 1 μM. The cultures were placed for an additional incubation hour at room temperature with shaking. The cultures were then infected with phage (MOI=0.5) having a final plaque forming units (PFU) of 5×10^7 PFU/ml phages. 15 minutes post phage infection the cultures were centrifuged at 3000 g for 5 minutes at 4° C. The supernatant was discarded and the pellets were resuspended with 1 ml of ice-cold 1×PBS (10 mM Phosphate, 137 mM NaCl, 2.7 mM KCl, pH of 7.4).\nFor the formaldehyde fixation of protein to DNA, the 1 ml PBS resuspended pellets were mixed with 62.5 μl formaldehyde (Thermoscientific 16% formaldehyde solution (w/v) methanol-free ampule) yielding a final formaldehyde concentration of 1% (w/v) within the solution. The formaldehyde-containing cell suspension was incubated at room temperature for 10 minutes with mild agitation. Following, 75 μl 2M Glycine (f.c. 150 mM) was added to quench residual formaldehyde. Glycine-containing samples were kept on ice for an additional 10 minutes followed by centrifugation at 5500 g for 1 minute at 4° C. […]"}},
  "data": [
    {"compound": "CC[C@H](C)[C@H](NC(=O)[C@H](C)NC(=O)[C@@H](N)CO)C(=O)N[C@@H](CCCNC(=N)N)C(=O)NCC(=O)N[C@@H](C)C(=O)O", "note": "[SAIRGA, Ser-Ala-Ile-Arg-Gly-Ala]", "values": [
      {"measurement": "effect on the phage infection dynamics (culture lysis, growth curve)", "setting": "phi3T; B. subtilis 168 infected by phi3T at MOI=0.1, LB supplemented with synthesized peptide", "value": "reduced culture lysis"},
      {"measurement": "peptide concentration of maximal effect on the culture growth curve", "setting": "phi3T; B. subtilis 168 infected by phi3T at MOI=0.1, effect saturated above", "value": 500, "unit": "nM"},
      {"measurement": "binding of AimR to its site in the phage genome (ChIP-seq)", "setting": "AimR", "value": "this binding only occurred when the arbitrium peptide was absent"}
    ]}
  ]
}
